“And” between values parts separate entries of the source, which are not always exact repeats. Equal entries are not always repeated.
Experiments:
Assay in all cases: MTT assay, growth inhibition by deguelin or deguelin derivatives
Type in all cases: cell-based
Details in all cases: 3 days
[1] = test system: H1299
[2] = test system: H358
[3] = test system: H596
[4] = test system: H460
[5] = test system: H322
[6] = test system: A549

SMILES: C=C(C)[C@H]1Cc2c(ccc3c(=O)c4c(oc23)COc2cc(OC)c(OC)cc2-4)O1 [6a,2a-dehydrorotenone]
- % control ([1]; H1299, 0.01 μM): 0.99%
- MTT assay reading, Average ([1]; H1299, 0.01 μM): 1.5514
- MTT assay reading, individual replicate ([1]; H1299, 0.01 μM): 1.562 and 1.561 and 1.559 and 1.63 and 1.515 and 1.517 and 1.516
- % control ([1]; H1299, 0.1 μM): 0.89%
- MTT assay reading, Average ([1]; H1299, 0.1 μM): 1.3907
- MTT assay reading, individual replicate ([1]; H1299, 0.1 μM): 1.39 and 1.308 and 1.385 and 1.539 and 1.281 and 1.351 and 1.481
- % control ([1]; H1299, 0.5 μM): 0.95%
- MTT assay reading, Average ([1]; H1299, 0.5 μM): 1.4937
- MTT assay reading, individual replicate ([1]; H1299, 0.5 μM): 1.544 and 1.561 and 1.338 and 1.502 and 1.595 and 1.413 and 1.503
- % control ([1]; H1299, 1 μM): 0.89%
- MTT assay reading, Average ([1]; H1299, 1 μM): 1.3961
- MTT assay reading, individual replicate ([1]; H1299, 1 μM): 1.452 and 1.321 and 1.233 and 1.57 and 1.421 and 1.33 and 1.446
- MTT assay reading, Average ([2]; H358, 0.01 μM): 0.8861
- MTT assay reading, individual replicate ([2]; H358, 0.01 μM): 0.784 and 0.734 and 0.786 and 0.686 and 0.95 and 1.192 and 1.071
- MTT assay reading, Average ([2]; H358, 0.1 μM): 0.7511
- MTT assay reading, individual replicate ([2]; H358, 0.1 μM): 0.602 and 0.652 and 0.603 and 0.672 and 0.792 and 0.778 and 1.159
- MTT assay reading, Average ([2]; H358, 0.5 μM): 0.6756
- MTT assay reading, individual replicate ([2]; H358, 0.5 μM): 0.533 and 0.604 and 0.6 and 0.736 and 0.633 and 0.734 and 0.889
- MTT assay reading, Average ([2]; H358, 1 μM): 0.684
- MTT assay reading, individual replicate ([2]; H358, 1 μM): 0.686 and 0.624 and 0.639 and 0.64 and 0.667 and 0.752 and 0.78
- MTT assay reading, Average ([3]; H596, 0.01 μM): 1.6089
- MTT assay reading, individual replicate ([3]; H596, 0.01 μM): 1.581 and 1.597 and 1.651 and 1.605 and 1.631 and 1.617 and 1.58
- MTT assay reading, Average ([3]; H596, 0.1 μM): 1.399
- MTT assay reading, individual replicate ([3]; H596, 0.1 μM): 1.347 and 1.381 and 1.333 and 1.513 and 1.417 and 1.34 and 1.462
- MTT assay reading, Average ([3]; H596, 0.5 μM): 1.4016
- MTT assay reading, individual replicate ([3]; H596, 0.5 μM): 1.343 and 1.467 and 1.312 and 1.463 and 1.351 and 1.399 and 1.476
- MTT assay reading, Average ([3]; H596, 1 μM): 1.3214
- MTT assay reading, individual replicate ([3]; H596, 1 μM): 1.234 and 1.257 and 1.341 and 1.494 and 1.326 and 1.319 and 1.279
- % control ([4]; H460, 0.01 μM): 0.96%
- MTT assay reading, Average ([4]; H460, 0.01 μM): 1.6774
- MTT assay reading, individual replicate ([4]; H460, 0.01 μM): 1.625 and 1.563 and 1.731 and 1.89 and 1.443 and 1.675 and 1.815
- % control ([4]; H460, 0.1 μM): 0.78%
- MTT assay reading, Average ([4]; H460, 0.1 μM): 1.3666
- MTT assay reading, individual replicate ([4]; H460, 0.1 μM): 1.314 (2×) and 1.333 and 1.204 and 1.501 and 1.379 and 1.521
- % control ([4]; H460, 0.5 μM): 0.85%
- MTT assay reading, Average ([4]; H460, 0.5 μM): 1.49
- MTT assay reading, individual replicate ([4]; H460, 0.5 μM): 1.31 and 1.421 and 1.538 and 1.504 and 1.55 and 1.534 and 1.573
- % control ([4]; H460, 1 μM): 0.79%
- MTT assay reading, Average ([4]; H460, 1 μM): 1.382
- MTT assay reading, individual replicate ([4]; H460, 1 μM): 1.253 and 1.353 and 1.351 and 1.347 and 1.429 and 1.319 and 1.622
- MTT assay reading, Average ([5]; H322, 0.01 μM): 0.969
- MTT assay reading, individual replicate ([5]; H322, 0.01 μM): 0.795 and 0.799 and 0.893 and 0.989 and 1.014 and 1.101 and 1.192
- MTT assay reading, Average ([5]; H322, 0.1 μM): 0.8656
- MTT assay reading, individual replicate ([5]; H322, 0.1 μM): 0.865 and 0.771 and 0.799 and 0.872 and 0.866 and 0.909 and 0.977
- MTT assay reading, Average ([5]; H322, 0.5 μM): 0.828
- MTT assay reading, individual replicate ([5]; H322, 0.5 μM): 0.736 and 0.809 and 0.833 and 0.746 and 0.89 and 0.958 and 0.824
- MTT assay reading, Average ([5]; H322, 1 μM): 0.7213
- MTT assay reading, individual replicate ([5]; H322, 1 μM): 0.677 and 0.658 and 0.692 and 0.681 and 0.68 and 0.859 and 0.802
- MTT assay reading, Average ([6]; A549, 0.01 μM): 1.7067
- MTT assay reading, individual replicate ([6]; A549, 0.01 μM): 1.69 (2×) and 1.705 and 1.541 and 1.829 and 1.786 and 1.706
- MTT assay reading, Average ([6]; A549, 0.1 μM): 1.4161
- MTT assay reading, individual replicate ([6]; A549, 0.1 μM): 0.691 and 1.805 and 1.719 and 1.454 and 1.375 (2×) and 1.494
- MTT assay reading, Average ([6]; A549, 0.5 μM): 1.4871
- MTT assay reading, individual replicate ([6]; A549, 0.5 μM): 1.531 and 1.925 and 1.594 and 1.387 and 1.359 and 1.356 and 1.258
- MTT assay reading, Average ([6]; A549, 1 μM): 1.4281
- MTT assay reading, individual replicate ([6]; A549, 1 μM): 1.544 and 1.458 and 1.375 and 1.486 and 1.428 and 1.464 and 1.242

Source: patent US20060128792A1, “Deguelin as a chemopreventive agent for lung cancer” (priority 2002, published 2006)
